How the values were obtained:
[1] = biological target: T1, programmed death-ligand 1 (PD-L1) (Homo sapiens, UniProt Q9NZQ7); assay: intrinsic fluorescence quenching (Stern-Volmer, static quenching); assay type: binding
T1 construct: gene CD274; recombinant human PD-L1 protein

[2] = biological target: T2, programmed cell death protein 1 (PD-1) (Homo sapiens, UniProt Q15116); assay: as above; assay type: binding
T2 construct: gene PDCD1; human PD-1 protein
T2 sequence (Q15116 25-288): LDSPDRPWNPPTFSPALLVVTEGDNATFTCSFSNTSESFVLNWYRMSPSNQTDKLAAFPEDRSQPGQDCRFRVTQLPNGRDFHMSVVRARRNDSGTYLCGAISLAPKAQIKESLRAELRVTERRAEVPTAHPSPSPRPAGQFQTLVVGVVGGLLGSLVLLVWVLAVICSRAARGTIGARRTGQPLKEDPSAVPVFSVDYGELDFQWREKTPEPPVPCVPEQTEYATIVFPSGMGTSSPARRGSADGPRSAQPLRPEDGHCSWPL

T1 sequence (Q9NZQ7 19-290): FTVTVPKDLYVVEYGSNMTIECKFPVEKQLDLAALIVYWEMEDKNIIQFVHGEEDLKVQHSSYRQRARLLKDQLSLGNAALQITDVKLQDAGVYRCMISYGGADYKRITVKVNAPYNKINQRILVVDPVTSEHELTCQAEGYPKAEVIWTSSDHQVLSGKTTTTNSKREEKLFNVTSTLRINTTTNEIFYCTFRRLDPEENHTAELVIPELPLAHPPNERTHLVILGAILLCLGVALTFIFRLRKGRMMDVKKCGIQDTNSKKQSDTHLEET

Row | Structure (SMILES) | intrinsic fluorescence quenching (Stern-Volmer, static quenching) [1] | intrinsic fluorescence quenching (Stern-Volmer, static quenching) [2]
1 | OCC1OC(Oc2cc3c(O)cc(O)cc3[o+]c2-c2ccc(O)c(O)c2)C(O)C(O)C1O (stereo not shown) [C3G, cyanidin-3-O-glucoside] | C3G and D3G showed static quenching with both PD-1 and PD-L1 | C3G and D3G showed static quenching with both PD-1 and PD-L1
2 | OCC1OC(Oc2cc3c(O)cc(O)cc3[o+]c2-c2cc(O)c(O)c(O)c2)C(O)C(O)C1O (stereo not shown) [D3G, delphinidin-3-O-glucoside] | C3G and D3G showed static quenching with both PD-1 and PD-L1 | C3G and D3G showed static quenching with both PD-1 and PD-L1
